Test results taken from patent US11834431B2, “Crystals of cyclic amine derivative and pharmaceutical use thereof” (Toray Industries, Inc., priority 2016, dated 2023).

Columns and labels:
[1] = Evaluation of hygroscopicity (equilibrium moisture measurement); assay type: physicochemical; details: for Weight increase: humidification with an increase in relative humidity from 5% to 65%; for Weight increase / Change in appearance: 30° C.; for Change in appearance: humidification
Method: Equilibrium moisture measurement was performed on Form A crystal and the amorphous matter of compound (I) under the following conditions using a fully automated symmetric vapor sorption analyzer (TA Instruments Inc.; VTI-SA+). […] The change in appearance was also observed.

[2] = Evaluation of storage stability of Form A crystal, 6 months (HPLC purity, powder X-ray diffraction, TG-DTA); assay type: physicochemical
[3] = test system: spinal nerve ligation model rats (neuropathic pain model rats); assay: Analgesic effect on allodynia in spinal nerve ligation model rats (von Frey, 50% response threshold); assay type: in vivo, rat; details: measured 3 hours after administration, 8 days after ligation, compared to negative control group
Method: Analgesic effects of the crystal of compound (I) or the pharmacologically acceptable salt thereof upon neuropathic pain were evaluated using spinal nerve ligation model rats (Kim and Chung, Pain, 1992, vol. 50, p. 355). Form A crystal of compound (I) was used as a crystal of compound (I) or the pharmacologically acceptable salt thereof for evaluation.
The above model rats were prepared as follows. In experiments, 6-to 7-week-old SD male rats were used for 5 to 7 cases per group, and the lumbar skin and muscle of each rat were dissected to expose the L5 and L6 […] under inhalation anesthesia with isoflurane. After ligating the L5 and L6 spinal nerves with silk suture, the wound of each rat was sutured. Thus, a nerve ligation group was prepared. The group in which the nerve was exposed but not ligated was determined to be a sham surgery group.
Allodynia observed in spinal nerve ligation model rats was measured using a von Frey filaments according to a method described in a known publication (Chaplan et al., J. Neurosci. Methods, 1994, vol. 53, p. 55) and a 50% response threshold (g) was determined. Eight days after the ligation surgery, allodynia of the nerve ligation group was measured before oral administration of Form A crystal of compound (I). Rats with a 50% response threshold (average value of the right hind paw and the left hind paw) of 2 g to less than 6 g were considered to have developed allodynia. The rats were divided as neuropathic pain model rats into groups such that there was no significant difference in the 50% response threshold between groups. Allodynia was measured 3 hours after the oral administration of Form A crystal of compound (I), and the analgesic effect was evaluated. Pregabalin was used as a positive control.
Form A crystal of compound (I) was dissolved in water for injection (distilled water) to result in concentrations of 5, 10, and 20 mg/mL, and orally administered in a dose volume of 1 mL per kg body weight. Pregabalin was dissolved in water for injection (distilled water) to result in a concentration of 10 mg/mL and orally administered in a dose volume of 1 mL per kg of body weight. Water for injection (distilled water) was orally administered to the sham surgery group. A group in which water for injection (distilled water) was orally administered to rats in the nerve ligation group was defined as a negative control group.
The horizontal axis represents the solution to be administered in each group, namely, the nerve ligation group or sham surgery group, and the vertical axis represents the 50% response threshold (g) (mean±standard error, n=5 to 7). […]

[4] = listed as Form A crystal of compound (I)
[5] = Storage test 1: 25° C., relative humidity 60%, open state
[6] = Storage test 2: 40° C., relative humidity 75%, airtight state
[7] = Storage test 3: 60° C., airtight state
[8] = any of storage tests 1 to 3, 6 months

CN(C)C1CCN(C(=O)C[C@H](O)c2nccn2C)CC1 [Form A crystal, (S)-1-(4-(dimethylamino)piperidin-1-yl)-3-hydroxy-3-(1-methyl-1H-imidazol-2-yl)propan-1-one]
Weight increase [1]: 0.1%
Weight increase [1, 4]: did not experience an increase in weight
Change in appearance [1]: Maintenance of white powder
Change in appearance [1, 4]: did not deliquesce
change in the crystal form after the hygroscopicity evaluation test ([1]; powder X-ray diffraction after humidification): did not experience a change in the crystal form
Chemical purity, After 6 months [2, 5]: 99.8%
Crystal form after 6 months [2, 5]: Form A
Decomposition product increased by not less than 0.15% after 6 months [2, 5]: None
Optical purity, After 6 months [2, 5]: 99.0 % ee
Chemical purity, After 6 months [2, 6]: 99.8%
Crystal form after 6 months [2, 6]: Form A
Decomposition product increased by not less than 0.15% after 6 months [2, 6]: None
Optical purity, After 6 months [2, 6]: 99.0 % ee
Chemical purity, After 6 months [2, 7]: 99.8%
Crystal form after 6 months [2, 7]: Form A
Decomposition product increased by not less than 0.15% after 6 months [2, 7]: None
Optical purity, After 6 months [2, 7]: 99.0 % ee
change in the crystal form on storage [2, 8]: no change was observed
change of purity on storage [2, 8]: did not change
Chemical purity, Initial value ([2]; before storage): 99.8%
Optical purity, Initial value ([2]; before storage): 98.8 % ee
improvement of allodynia (50% response threshold) ([3]; oral 5 mg/kg): significant improvement
improvement of allodynia (50% response threshold) ([3]; oral 10 mg/kg): significant improvement
improvement of allodynia (50% response threshold) ([3]; oral 20 mg/kg): significant improvement
